Results on 36 compounds are retold here after patent US11339144B2 (Navitor Pharmaceuticals, Inc., priority 2017, dated 2022).

Assay [1] concerns the target HA-GST-Rheb (GTP-γ-S loaded) activating mTORC1 (Homo sapiens (Human), UniProt Q15382). The experiment in a line: Rheb-dependent in vitro kinase assay (Rheb-IVK; LanthaScreen or Western readout). Particulars: Rheb-dependent in vitro kinase assay; read-out: IVK IC50. Type of assay: biochemical. On the technique in general: Time-resolved FRET reads energy transfer from a long-lived donor to a nearby acceptor.

For the next assay, the target named is Rheb (Homo sapiens (Human), UniProt Q15382). The experiment in a line: Affinity Selection Mass Spectrometry (ASMS). Type of assay: binding. Particulars: affinity (R3/R0) in Affinity Selection Mass Spectrometry assay. The essentials: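 Human Rheb (60 μM) with GDP (180 μM) and each compound at 2 μM, protein-plus versus protein-minus, incubated 30 min at room temperature, then washed by 10 kDa ultrafiltration. Retained ligand was released with MeCN and detected by UPLC-Q-TOF MS.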

Some results are limits rather than exact numbers.

Chain of HA-GST-Rheb (GTP-γ-S loaded) activating mTORC1 (Q15382 1-181): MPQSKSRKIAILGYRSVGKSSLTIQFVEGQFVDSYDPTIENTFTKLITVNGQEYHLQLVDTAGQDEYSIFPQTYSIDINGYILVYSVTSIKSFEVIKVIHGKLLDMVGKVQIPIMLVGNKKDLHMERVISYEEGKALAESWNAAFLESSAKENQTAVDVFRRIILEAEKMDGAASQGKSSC
Chain of Rheb (Q15382 1-169 limits assumed): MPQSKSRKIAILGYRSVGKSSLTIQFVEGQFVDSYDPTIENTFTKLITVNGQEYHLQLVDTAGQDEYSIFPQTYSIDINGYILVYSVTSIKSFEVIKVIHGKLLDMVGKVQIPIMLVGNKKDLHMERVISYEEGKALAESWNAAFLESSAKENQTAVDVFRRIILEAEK

What is called IC50 is the concentration at which inhibition is half-maximal. With `CS(=O)(=O)CCNC(=O)c1cc2c(Sc3ccc(Cl)cc3)cc(Cl)cc2[nH]1` [I-137], the IC50 in assay [1] is > 100 µM. Besides, on Rheb, the “ASMS (R3/R0)” value is “A (an affinity (R3/R0)>100%)”.

With `OCc1cc2c(Br)cc(OCCCc3ccccc3)cc2[nH]1` [I-235, (4-Bromo-6-(3-phenylpropoxy)-1H-indol-2-yl)methanol], the half-maximal inhibitory concentration (IC50) in assay [1] fell in the range of 10 to 100 µM. Further, the “ASMS (R3/R0)” value on Rheb is “B (an affinity (R3/R0) between 100% and 20%)”.

In the case of `O=C(O)c1cc2c(OCc3ccc(Cl)cc3)cc(Cl)c(Cl)c2[nH]1` [I-60, 6,7-dichloro-4-(4-chlorobenzyloxy)-1H-indole-2-carboxylic acid], in assay [1], the half-inhibitory concentration (IC50) lay in the range of 10 to 100 µM. Moreover, the “ASMS (R3/R0)” value at Rheb is “B (an affinity (R3/R0) between 100% and 20%)”.

As to `Fc1cccc(Oc2cccc3[nH]ccc23)c1` [I-282, 4-(3-fluorophenoxy)-1H-indole], the concentration for half-maximal inhibition (IC50) in assay [1] is 100 to 300 µM. For the same compound, the “ASMS (R3/R0)” value at Rheb is given as “C (an affinity (R3/R0)<20%)”.

As for `O=C(O)c1cc2c(Sc3ccc(F)cc3)cc(Cl)cc2[nH]1` [I-156, 6-chloro-4-(4-fluorophenylthio)-1H-indole-2-carboxylic acid], the IC50 in assay [1] was 10 to 100 µM. Also, on Rheb, the “ASMS (R3/R0)” value is “B (an affinity (R3/R0) between 100% and 20%)”.

`OCc1nc2cc(SCc3ccc(Cl)cc3)c(Cl)c(Cl)c2[nH]1` [I-356, (6,7-dichloro-5-(4-chlorobenzylthio)-1H-benzo[d]imidazol-2-yl)methanol]: the half-inhibitory concentration (IC50) in assay [1] lay within 10 to 100 µM. On Rheb, the “ASMS (R3/R0)” value was “A (an affinity (R3/R0)>100%)”.

For the compound `O=C(O)c1cc2c(Cl)cc(-c3cc(Cl)cc(Cl)c3)cc2[nH]1` [I-47, 4-chloro-6-(3,5-dichlorophenyl)-1H-indole-2-carboxylic acid], the IC50 in assay [1] lay within 10 to 100 µM. In addition, the “ASMS (R3/R0)” value on Rheb was “B (an affinity (R3/R0) between 100% and 20%)”.

Regarding `O=C(NC1CCN(Cc2ccccc2)CC1)c1cc2c(Sc3ccc(Cl)cc3Cl)cc(Cl)cc2[nH]1` [I-117], the concentration for half-maximal inhibition (IC50) in assay [1] is > 3 µM. The “ASMS (R3/R0)” value on Rheb is listed as “C (an affinity (R3/R0)<20%)”.

For the compound `O=C(O)Cn1c(C(=O)O)cc2c(Oc3cc(Cl)ccc3Cl)cc(Cl)cc21` [I-162, 1-(Carboxymethyl)-6-chloro-4-(2,5-dichlorophenoxy)-1H-indole-2-carboxylic acid], in assay [1], the IC50 lay in the range of 100 to 300 µM. Further, the “ASMS (R3/R0)” value at Rheb is “B (an affinity (R3/R0) between 100% and 20%)”.

Consider `O=C(Nc1ccc(N2CCN(Cc3ccccc3)CC2)c(F)c1)c1cc2c(Sc3ccc(Cl)cc3Cl)cc(Cl)cc2[nH]1` [I-91, N-(4-(4-benzylpiperazin-1-yl)-3-fluorophenyl)-6-chloro-4-(2,4-dichlorophenylthio)-1H-indole-2-carboxamide], for which, in assay [1], the IC50 fell in the range of 10 to 100 µM. In addition, the “ASMS (R3/R0)” value at Rheb is “B (an affinity (R3/R0) between 100% and 20%)”.

With `CN(C)C(=O)c1ccc(Cn2c(C(=O)O)cc3ccc(Sc4ccc(Cl)c(Cl)c4)c(Br)c32)cc1` [I-6, 7-bromo-6-(3,4-dichlorophenylthio)-1-(4-(dimethylcarbamoyl)benzyl)-1H-indole-2-carboxylic acid], the IC50 in assay [1] is < 10 µM. Besides, the “ASMS (R3/R0)” value on Rheb is “B (an affinity (R3/R0) between 100% and 20%)”.

Consider `Clc1cc2nc(-c3cccnc3)[nH]c2c(Cl)c1Cl` [I-355], for which the IC50 in assay [1] was > 100 µM. For the same compound, at Rheb, the “ASMS (R3/R0)” value was “B (an affinity (R3/R0) between 100% and 20%)”.

As for `Nc1ccc(N2CCN(C(=O)c3cc4c(Sc5ccc(Cl)cc5Cl)cc(Cl)cc4[nH]3)CC2)cc1F` [I-92, (4-(4-amino-3-fluorophenyl)piperazin-1-yl)(6-chloro-4-(2,4-dichlorophenylthio)-1H-indol-2-yl)methanone], in assay [1], the IC50 is 10 to 100 µM. In addition, the “ASMS (R3/R0)” value at Rheb is “B (an affinity (R3/R0) between 100% and 20%)”.

With `CN(C)C(=O)c1ccc(Cn2c(C(=O)O)cc3c(Br)cc(SCC4CCCCC4)cc32)cc1` [I-24, 4-bromo-6-(cyclohexylmethylthio)-1-(4-(dimethylcarbamoyl)benzyl)-1H-indole-2-carboxylic acid], the IC50 in assay [1] was < 10 µM. Also, the “ASMS (R3/R0)” value on Rheb was “B (an affinity (R3/R0) between 100% and 20%)”.

As to `Clc1cc2nc(-c3ccc(-c4nn[nH]n4)cc3)[nH]c2cc1Cl` [I-344], in assay [1], the IC50 was > 100 µM. On Rheb, the “ASMS (R3/R0)” value is on record as “A (an affinity (R3/R0)>100%)”.

Consider `OCc1cc2c(Br)cc(SCc3ccc(Cl)cc3)cc2[nH]1` [I-145, (4-bromo-6-(4-chlorobenzylthio)-1H-indol-2-yl)methanol], for which the IC50 in assay [1] lay within 10 to 100 µM. Also, the “ASMS (R3/R0)” value at Rheb was “B (an affinity (R3/R0) between 100% and 20%)”.

For `OCc1nc2cc(OCc3ccccc3F)c(Cl)cc2[nH]1` [I-481], the IC50 in assay [1] is > 100 µM. The “ASMS (R3/R0)” value at Rheb was “C (an affinity (R3/R0)<20%)”.

For `OCc1cc2c(Sc3ccc(F)cc3)cc(Cl)cc2[nH]1` [I-153, (6-chloro-4-(4-fluorophenylthio)-1H-indol-2-yl)methanol], in assay [1], the IC50 is 10 to 100 µM. Also, at Rheb, the “ASMS (R3/R0)” value was “B (an affinity (R3/R0) between 100% and 20%)”.

Take `O=C(O)c1cc2c(Sc3ccc(Cl)cc3)cc(Cl)c(Cl)c2[nH]1` [I-73, 6,7-dichloro-4-(4-chlorophenylthio)-1H-indole-2-carboxylic acid]: in assay [1], the IC50 is < 10 µM. Moreover, the “ASMS (R3/R0)” value at Rheb is on record as “A (an affinity (R3/R0)>100%)”.

Consider `O=C(O)c1cc2c(Sc3ccc(Cl)cc3Cl)cc(Cl)cc2n1Cc1ccc(-c2ccncc2)cc1` [I-70, 6-chloro-4-(2,4-dichlorophenylthio)-1-(4-(pyridin-4-yl)benzyl)-1H-indole-2-carboxylic acid], for which, in assay [1], the IC50 is < 10 µM. Besides, the “ASMS (R3/R0)” value at Rheb was “A (an affinity (R3/R0)>100%)”.

For `OCc1cc2c(Oc3ccc(C4CCCCC4)cc3)cc(Cl)cc2[nH]1` [I-127, (6-chloro-4-(4-cyclohexylphenoxy)-1H-indol-2-yl)methanol], the IC50 in assay [1] is < 10 µM. For the same compound, the “ASMS (R3/R0)” value at Rheb was “B (an affinity (R3/R0) between 100% and 20%)”.

In the case of `CN1CC(NC(=O)c2cc3c(Sc4ccc(Cl)cc4)cc(Cl)cc3[nH]2)C1` [I-71, 6-chloro-4-(4-chlorophenylthio)-N-(1-methylazetidin-3-yl)-1H-indole-2-carboxamide], in assay [1], the IC50 is < 10 µM. Also, at Rheb, the “ASMS (R3/R0)” value was “B (an affinity (R3/R0) between 100% and 20%)”.

Take `OCc1cc2c(Sc3ccc(F)c(F)c3)cc(Cl)cc2[nH]1` [I-152, (6-chloro-4-(3,4-difluorophenylthio)-1H-indol-2-yl)methanol]: the half-inhibitory concentration (IC50) in assay [1] was 10 to 100 µM. For the same compound, the “ASMS (R3/R0)” value at Rheb was “B (an affinity (R3/R0) between 100% and 20%)”.

For `CN1CCC(NC(=O)c2ccc(Cn3c(C(=O)O)cc4c(Br)cc(Oc5ccccc5)cc43)cc2)C1` (stereo not drawn) [I-53], the IC50 in assay [1] is > 100 µM. Also, the “ASMS (R3/R0)” value on Rheb is “B (an affinity (R3/R0) between 100% and 20%)”.

For `CN1CCN(C(=O)c2cc3nc(-c4ccnc5[nH]ccc45)[nH]c3c(Cl)c2Cl)CC1` [I-321], the IC50 in assay [1] is > 100 µM. Moreover, the “ASMS (R3/R0)” value at Rheb was “C (an affinity (R3/R0)<20%)”.

As for `O=C(O)c1cc2c(Sc3ccc(Cl)cc3Cl)cc(Cl)cc2n1Cc1ccc(Br)cc1` [I-103], in assay [1], the 50% inhibitory concentration (IC50) was > 100 µM. Moreover, the “ASMS (R3/R0)” value at Rheb was “B (an affinity (R3/R0) between 100% and 20%)”.

`O=C(O)c1cc2c(Sc3ccc(Oc4ccc(Cl)cc4)cc3)cc(Cl)cc2[nH]1` [I-84, 6-chloro-4-(4-(4-chlorophenoxy)phenylthio)-1H-indole-2-carboxylic acid]: the IC50 in assay [1] is < 10 µM. Moreover, on Rheb, the “ASMS (R3/R0)” value was “B (an affinity (R3/R0) between 100% and 20%)”.

As for `O=C(O)c1cc2c(Sc3ccc(F)c(F)c3)cc(Cl)cc2[nH]1` [I-155, 6-chloro-4-(3,4-difluorophenylthio)-1H-indole-2-carboxylic acid], the IC50 in assay [1] was 10 to 100 µM. Also, the “ASMS (R3/R0)” value at Rheb is “B (an affinity (R3/R0) between 100% and 20%)”.

On to `OCc1nc2c(OCC3COCC3O)c(Cl)c(Cl)cc2[nH]1` (stereo not drawn) [I-381], for which the IC50 in assay [1] was > 100 µM. Besides, at Rheb, the “ASMS (R3/R0)” value was “C (an affinity (R3/R0)<20%)”.

As to `CN(C)CCNC(=O)c1cc2c(Sc3ccc(Cl)cc3Cl)cc(Cl)cc2[nH]1` [I-115, 6-chloro-4-(2,4-dichlorophenylthio)-N-(2-(dimethylamino)ethyl)-1H-indole-2-carboxamide], the IC50 in assay [1] lay in the range of 10 to 100 µM. For the same compound, the “ASMS (R3/R0)” value on Rheb was “B (an affinity (R3/R0) between 100% and 20%)”.

With `OCc1nc2c(Sc3ccc(Cl)cc3Cl)c(Cl)c(Cl)cc2[nH]1` [I-371, (5,6-dichloro-4-(2,4-dichlorophenylthio)-1H-benzo[d]imidazol-2-yl)methanol], the IC50 in assay [1] is 10 to 100 µM. Besides, at Rheb, the “ASMS (R3/R0)” value was “B (an affinity (R3/R0) between 100% and 20%)”.

For `O=[N+]([O-])c1ccc(COc2cc3nc(CO)[nH]c3c(Cl)c2Cl)cc1` [I-329, (6,7-dichloro-5-(4-nitrobenzyloxy)-1H-benzo[d]imidazol-2-yl)methanol], the IC50 in assay [1] is 10 to 100 µM. For the same compound, the “ASMS (R3/R0)” value at Rheb was “A (an affinity (R3/R0)>100%)”.

Regarding `OCc1cc2c(Oc3cccc(Cl)c3)cc(Cl)cc2[nH]1` [I-215, (6-chloro-4-(3-chlorophenoxy)-1H-indol-2-yl)methanol], the IC50 in assay [1] lay in the range of 10 to 100 µM. Besides, the “ASMS (R3/R0)” value at Rheb is “B (an affinity (R3/R0) between 100% and 20%)”.

Consider `OCc1nc2cc(OCc3ccccc3)c(Cl)cc2[nH]1` [I-492], for which, in assay [1], the IC50 is > 100 µM. Besides, the “ASMS (R3/R0)” value on Rheb is given as “C (an affinity (R3/R0)<20%)”.

Take `CN1CCN(c2ccc(NC(=O)c3cc4c(Br)cc(Sc5ccc(Cl)c(Cl)c5)cc4[nH]3)cc2)CC1` [I-96, 4-bromo-6-(3,4-dichlorophenylthio)-N-(4-(4-methylpiperazin-1-yl)phenyl)-1H-indole-2-carboxamide]: in assay [1], the IC50 lay in the range of 10 to 100 µM. Further, the “ASMS (R3/R0)” value on Rheb is on record as “A (an affinity (R3/R0)>100%)”.

Regarding `CN1CC(NC(=O)c2cc3c(Sc4ccc(Cl)cc4Cl)cc(Cl)c(Cl)c3[nH]2)C1` [I-21], the IC50 in assay [1] was > 100 µM. The “ASMS (R3/R0)” value on Rheb is “C (an affinity (R3/R0)<20%)”.
